Source: patent publication US10047105B2, “Gyrase inhibitors” (Merck Sharp & Dohme Corp., priority 2009, dated 2018)
In brackets after ≈: the same amount, converted by molar mass.

Tests used:
Type in all cases: cell-based
S. aureus ATCC 13709 = assay: MIC, antibacterial potency, S. aureus; settings: S. aureus (SA); in µg/mL
E. coli 8 ATCC 25922 = assay: MIC, E. coli 8 (wt); settings: E. coli 8 (EC8)
S. pneumoniae ATCC 51916 = assay: MIC, S. pneumoniae; settings: S. pneumoniae (Spn52); in µg/mL

Row | SMILES | MIC, SA (S. aureus ATCC 13709) | MIC EC8 (E. coli 8 ATCC 25922) [µg/mL] | MIC Spn52 (S. pneumoniae ATCC 51916)
1 | CCc1[nH]c2nc(Oc3cnc4c(c3)ncn4C)nc(Oc3cnc4c(c3)ncn4C)c2c1Br [700,939] | <=0.5 | > 64 | 1
2 | CCc1[nH]c2nc(Oc3cncnc3)nc(Oc3cc(O)cc(C#N)c3)c2c1Cl [701,264] | <=0.5 | > 64 | <=0.5
3 | CCc1[nH]c2nc(Sc3ccc4[nH]c(C(F)(F)F)cc(=O)c4c3)nc(N3CC[C@@H](N)C3)c2c1Cl [700,918] | 2 | > 64 | 8
4 | CCc1[nH]c2nc(Oc3cnc(OC)c(OC)c3)nc(Oc3ccc4nccnc4c3)c2c1Br [701,096] | <=0.5 | > 64 | <=0.5
5 | CCc1[nH]c2nc(Oc3cccc(C#N)c3)nc(Oc3cncnc3)c2c1Br [701,253] | 1 | > 64 | 4
6 | CCc1[nH]c2nc(SC)nc(N3CC[C@@H](N)C3)c2c1C#N [701,077] | >64 | > 64 | >64
7 | CCc1[nH]c2nc(Oc3cc(C#N)c(OC)c(OC)c3)nc(Oc3ccc4nccnc4c3)c2c1Br [701,081] | <=0.5 | > 32 | <=0.5
8 | CCc1[nH]c2nc(Oc3cncc(C#N)c3)ncc2c1Cl [701,261] | 4 | > 64 | 16
9 | CCc1[nH]c2nc(Sc3ccc4cc5c([n+]([O-])c4c3)CCNC5)nc(N3CC[C@@H](N)C3)c2c1Cl [700,940] | 2 | 8 (≈ 16.1 µM) | 8
10 | CCc1[nH]c2nc(Oc3ccc4nccnc4c3)nc(Oc3cnc4c(c3)ncn4C)c2c1Br [700,988] | <=0.5 | > 64 | <=0.5
11 | CCc1[nH]c2nc(SC)nc(N3CC[C@@H](N)C3)c2c1Cl [701,076] | >64 | > 64 | 64
12 | CCc1[nH]c2nc(Oc3ccc4ccc[n+]([O-])c4c3)nc(Oc3ccc4ccc[n+]([O-])c4c3)c2c1Br [701,056] | 4 | > 64 | 8
13 | CCc1[nH]c2nc(Oc3ccc4c(c3)ncc[n+]4[O-])nc(Oc3ccc4nccnc4c3)c2c1Br [701,059] | <=0.5 | > 64 | <=0.5
14 | CCc1[nH]c2nc(Sc3ccc4cc5c([n+]([O-])c4c3)CCN(C(=O)CCCC[C@@H]3SC[C@@H]4NC(=O)N[C@@H]43)C5)nc(N3CC4C(C3)C4(N)C(N)=O)c2c1Cl (stereo partly drawn) [701,229] | 4 | > 64 | 32
15 | CCc1[nH]c2nc(Oc3ccc4nccnc4c3)nc(N(C)C)c2c1Cl [700,962] | <=0.5 | > 8 | 2
16 | CCc1[nH]c2nc(Sc3cnc4ccc[n+]([O-])c4c3)nc(N3CC[C@@H](N)C3)c2c1Cl [701008-2] | <=0.5 | 4 (≈ 9.05 µM) | 1
17 | CCc1[nH]c2nc(Oc3cncc(C#N)c3)nc(Oc3ccc4ncnc(N5CC(N)C5)c4c3)c2c1Br [701,298] | 2 | > 64 | 4
18 | CCc1[nH]c2nc(Oc3cncc(C#N)c3)nc(Oc3cccc(OC)c3)c2c1Br [700,966] | <=0.5 | > 64 | <=0.5

Continued, values first:

Row | MIC, SA (S. aureus ATCC 13709) | MIC EC8 (E. coli 8 ATCC 25922) [µg/mL] | MIC Spn52 (S. pneumoniae ATCC 51916) | SMILES
19 | 2 | > 64 | 2 | CCc1[nH]c2nc(Sc3cnc4cccnc4c3)nc(N3C[C@H](N)[C@H](C(=O)Nc4nccs4)C3)c2c1Cl [701,024]
20 | 2 | > 64 | 4 | CCc1[nH]c2nc(Sc3cnc4cccnc4c3)nc(N3CCC(NCCN)C3)c2c1Cl (stereo not drawn) [700,921]
21 | >64 | > 64 | >64 | CCc1[nH]c2nc(Sc3ccc4c(N5CC[C@@H](N)C5)cc(=O)oc4c3)nc(N3CC[C@@H](N)C3)c2c1Cl [701,184]
22 | <=0.5 | > 64 | 1 | CCc1[nH]c2nc(Sc3cnc4ccc[n+]([O-])c4c3)nc(N3CC(O)C3)c2c1Cl [701,027]
23 | 32 | > 64 | 32 | CCc1[nH]c2nc(Oc3ccc4nccnc4c3)nc(N3CC(CN(C)C)C3)c2c1Cl [701,113]
24 | 64 | > 64 | 64 | CCc1[nH]c2nc(Sc3cnc4nccnc4c3)nc(N(CCN)CC(C)C)c2c1Cl [701,148]
25 | 16 | > 64 | 32 | CCc1[nH]c2nc(Sc3cncc(S(=O)(=O)N(C)C)c3)nc(N3CC[C@@H](N)C3)c2c1Cl [701,180]
26 | 2 | > 64 | 4 | CCc1[nH]c2nc(Sc3cnc(N4CCC4)c([N+](=O)[O-])c3)nc(N3CC[C@@H](N)C3)c2c1Cl [701,089]
27 | >64 | 64 (≈ 126 µM) | >64 | NC1CN(c2ncnc3cc(Sc4nc(N5CC[C@@H](N)C5)c5c(Cl)c(C6CC6)[nH]c5n4)ccc23)C1 [700,995]
28 | 4 | 64 (≈ 156 µM) | 8 | CCc1[nH]c2nc(Oc3ccc4nccnc4c3)nc(N3CC[C@@H](N)C3)c2c1Cl [701,000]
29 | >64 | > 64 | >64 | CCc1[nH]c2nc(Sc3ccc4[nH]cc(C(=O)O)c(=O)c4c3)nc(N3CC[C@@H](N)C3)c2c1Cl [700,920]
30 | <=0.5 | 8 (≈ 18.8 µM) | <=0.5 | CCc1[nH]c2nc(Sc3ccc4cncnc4c3)nc(N3CC[C@@H](N)C3)c2c1Cl [701,049]
31 | 1 | 64 (≈ 141 µM) | 2 | CCc1[nH]c2nc(Sc3cnc4nccnc4c3)nc(N3CCC4(CC4N)C3)c2c1Cl (stereo not drawn) [700,986]
32 | 1 | 32 (≈ 75.3 µM) | 2 | CCc1[nH]c2nc(Sc3ccc4cccnc4c3)nc(N3CC[C@@H](N)C3)c2c1Cl [700,991]
33 | >64 | > 64 | >64 | CCc1[nH]c2nc(Sc3cnc4cccnc4c3)nc(N3CC4CC(C3)N(C(=O)OC(C)(C)C)C4)c2c1Cl (stereo not drawn) [701,132]
34 | <=0.5 | 32 (≈ 77.7 µM) | <=0.5 | CCc1[nH]c2nc(Sc3ccc4cncnc4c3)nc(N3CC(N)C3)c2c1Cl [701,050]
35 | 16 | > 64 | 16 | CCc1[nH]c2nc(Sc3ccc4[nH]cc(C(=O)OC)c4c3)nc(N3CC[C@@H](N)C3)c2c1Cl [701,062]
36 | <=0.5 | 32 (≈ 68.2 µM) | 4 | CCc1[nH]c2nc(Sc3cnc4c(c3)c(=O)ncn4C)nc(N3CC4C(N)C4C3)c2c1Cl (stereo not drawn) [701,270]
37 | <=0.5 | > 64 | <=0.5 | CCc1[nH]c2nc(Sc3ccc4nccnc4c3)nc(N3C[C@@H]4C(N)[C@@H]4C3)c2c1Cl (stereo partly drawn) [701,006]
38 | >64 | > 64 | >64 | CCc1[nH]c2nc(Sc3cnc4cccnc4c3)nc(N3C[C@H](N)[C@H](C(=O)N4CC(N)C4)C3)c2c1Cl [701,016]
39 | 8 | 16 (≈ 28.9 µM) | >64 | CCc1[nH]c2nc(Sc3ccc4c(N5CC[C@@H](N)C5)nc(C(=O)O)nc4c3)nc(N3CC[C@@H](N)C3)c2c1Cl [700,955]
